From patent US9644039B2, “Acid-degradable and bioerodible modified polyhydroxylated materials” (The Regents of the University of California, priority 2008, dated 2017)

What was measured:
B16 tumor = experiment: Chemotherapy of subcutaneous B16 tumor with DOX particles; type: in vivo, mice; settings: injected after 3 days
Method: To determine the maximum in vivo tolerated dose for the particles, a varying concentration of doses of 0 (PBS), 20, 40, and 60 mg/kg DOX equivalents are injected intravenously. The weights and general health of the mice are monitored until the ninth day after injection. Based on weight loss, the maximum injection of particles tolerated in mice is calculated. Once determined, mice are implanted subcutaneously with a B16 tumor. After 3 days mice are injected with PBS, free DOX, Ac-DEX particles encapsulating DOX, pegylated-Ac-DEX particles, or Doxcil (a commercially available doxorubicin/liposome conjugate). Mice are monitored for tumor growth. Once the tumor reaches an average diameter of 1.5 cm, the mice are sacrificed.

MO5 tumor cells = experiment: Tumor prophylactic vaccination, MO5 tumor challenge; type: in vivo, Mice; settings: immunized subcutaneously day 0, 200,000 MO5 tumor cells day 7
Method: In one embodiment, Ac-DEX particles will encapsulate OVA similar to (Example 9 with B3Z assay) and be used in a tumor prophylactic and treatment vaccination against cancer. MO5 is a B16 tumor cell line that expresses OVA (Falo et al. 1995, Targeting antigen into the phagocytic pathway in vivo induces protective tumour immunity. Nat Med 1:649-53). Mice are immunized subcutaneously with 2 mg of Ac-DEX particles with a 2.5 wt % loading of OVA (50 μg of OVA) in the left flank on day 0. Other groups include mice which are injected with either OVA, saline, or Ac-DEX particles encapsulating OVA and an immunostimulatory CpG stimulant. We have shown earlier that adding CpG with acid labile particles drastically increases the efficacy of treatment(Standley et al. 2007, Incorporation of CpG oligonucleotide ligand into protein-loaded particle vaccines promotes antigen-specific CD8 T-cell immunity. Bioconjug Chem 18:77-83). CpG can be either co-injected with the particles, or it can be encapsulated inside the particles. […]
After injection, the tumor growth is monitored by measuring two perpendicular axes using calipers. Tumor volume is then calculated using the equation, volume=[…], with the length being the longest diameter and the width being the shortest diameter of the two perpendicular measurements. […]

RAW macrophages = experiment: B3Z / LacZ MHC Class I antigen presentation assay; type: cell-based; settings: APCs incubated with free or encapsulated ovalbumin
Method: The LacZ MHC Class I antigen presentation assay, as described by Sanderson, S.; Shastri, N. in Inter. Immun. 1994, 6, 369-376, is performed with degradable polymer particles made according to Example 3 with the modified hydroxylated polymers of Example 2 to test their ability to deliver proteins into APCs for Class I antigen presentation. This experiment uses the LacZ B3Z hybridoma, which is a CTL that recognizes the peptide sequence, […] (SEQ ID NO: 8), from ovalbumin, complexed with the MHC Class I molecule H-2K^b. This hybridoma produces β-galactosidase after encountering APCs that present […] as a Class I antigen, thus allowing Class I antigen presentation to be quantified by measuring β-galactosidase activity.
In order to assess the feasibility of using Ac-DEX based materials for vaccine applications, OVA-loaded Ac-DEX particles were incubated with RAW macrophages. […] 1×10^4 RAW macrophages were seeded overnight in a 96 well plate and subsequently incubated with OVA-containing Ac-DEX particles or free OVA. […] After six hours of incubation, Ac-DEX particles increased MHC class I presentation of the OVA-derived CD8^+ T-cell epitope, […], by a factor of 16 relative to free OVA (FIG. 15) measured by the B3Z assay (Karttunen, J.; Shastri, N., Proc. Natl. Acad. Sci. U.S.A. 1991, 88, 3972-6).

Molecule	tumor growth (order of groups) (B16 tumor)	tumor onset, tumor growth and survival time (MO5 tumor cells)	activation of CTLs (Class I antigen presentation) (RAW macrophages)
COc1cccc2c1C(=O)c1c(O)c3c(c(O)c1C2=O)C[C@@](O)(C(=O)CO)C[C@@H]3O[C@H]1C[C@H](N)[C@H](O)[C@H](C)O1 [free Dox, doxorubicin]	fastest tumor growth followed by, free Dox, Ac-DEX particles, Doxcil and finally PEGylated Ac-DEX particles	–	–
free ovalbumin: ovalbumin, model protein antigen, not encapsulated	–	fastest tumor onset and tumor growth	not able to activate CTLs
